{"source": "patent US10633407B2", "about": "“14-membered ketolides and methods of their preparation and use” (President and Fellows of Harvard College, priority 2014, dated 2020)", "assay_in_all_cases": "CLSI broth dilution MIC determination", "assay_type_in_all_cases": "cell-based", "key": {"[1]": {"tested_on": "S. aureus MP-17 ATCCBAA-977 (BAA 977 iErm)", "settings": "S. aureus MP-17, ATCCBAA-977, iErm", "source_text": "(§1) MIC data was collected for the novel macrolides that this platform has produced against over 21 unique strains of B. subtilis, E. coli, S. aureus, S. pneumoniae, and H. influenzae, including several multidrug-resistant strains, with a special focus on macrolide resistant mechanisms (vide supra). Azithromycin (Azithro) and Solithromycin (Solithro) were included as a control macrolides in many cases. CLSI standard procedures for broth dilution MIC determination were used. […] These genotypes can be constitutive or inducible."}, "[2]": {"tested_on": "E. coli MP-9 ATCC25922:tolC", "source_text": "as §1"}, "E. coli MP-541 clinical": {"tested_on": "E. coli MP-541 clinical", "source_text": "as §1"}, "[3]": {"tested_on": "S. aureus (MRSA) MP-513 ST-228 cErm (Clinical-cErm)", "source_text": "as §1"}, "[4]": {"tested_on": "E. coli MP-532 clinical-cErmB", "source_text": "as §1"}, "E. coli ATCC 25922": {"tested_on": "E. coli ATCC 25922", "source_text": "as §1"}, "S. aureus ATCC 29213": {"tested_on": "S. aureus ATCC 29213", "settings": "S. aureus ATCC 29213 (MP-12)", "source_text": "as §1"}, "S. aureus MRSA: USA300": {"tested_on": "S. aureus MRSA: USA300", "settings": "S. aureus MRSA: USA300 (MP-549, msr(a))", "source_text": "as §1"}, "[5]": {"tested_on": "A. baumannii MP-576 Clinical-MDR"}, "P. aeruginosa MP-7 PAO1": {"tested_on": "P. aeruginosa MP-7 PAO1"}, "[6]": {"tested_on": "K. pneumoniae MP-546 Clinical-MDR"}, "[7]": {"tested_on": "A. baumannii MP-577 Clinical-AZT low"}, "[8]": {"tested_on": "P. aeruginosa MP-8 PAO1:mex (mex-oprM-deletion)"}, "P. aeruginosa ATCC 27853": {"tested_on": "P. aeruginosa ATCC 27853", "settings": "P. aeruginosa ATCC 27853 (MP-3)"}, "[9]": {"tested_on": "K. pneumoniae MP-548 clinical"}, "K. pneumoniae ATCC 10031": {"tested_on": "K. pneumoniae ATCC 10031"}, "A. baumannii ATCC 19606": {"tested_on": "A. baumannii ATCC 19606", "settings": "A. baumannii ATCC 19606 (MP-15)"}, "[10]": {"settings": "Staphylococcus aureus, read-out: MIC"}, "[11]": {"settings": "Escherichia coli, MP541CLINICAL, read-out: MIC"}, "[12]": {"settings": "Escherichia coli, ATCC25922, E. coli ATCC 25922 (MP-4), read-out: MIC"}, "[13]": {"settings": "Staphylococcus aureus, ATCC29213, read-out: MIC"}, "[14]": {"settings": "Acinetobacter baumannii, read-out: MIC"}, "[15]": {"settings": "Pseudomonas aeruginosa, read-out: MIC"}, "[16]": {"settings": "Klebsiella pneumoniae, read-out: MIC"}, "[17]": {"settings": "Pseudomonas aeruginosa, ATCC27853, read-out: MIC"}, "[18]": {"settings": "Klebsiella pneumoniae, MP548CLINICAL, read-out: MIC"}, "[19]": {"settings": "Klebsiella pneumoniae, ATCC10031, K. pneumoniae ATCC 10031 (MP-14), read-out: MIC"}, "[20]": {"settings": "Acinetobacter baumannii, ATCC19606, read-out: MIC"}}, "note": "Like-named read-outs stand apart in the source and are kept apart here.", "data": [{"molecule": "CC[C@H]1OC(=O)[C@@](C)(F)C(=O)[C@H](C)[C@@H](O[C@@H]2OC(C)CC(N(C)C)C2O)[C@](C)(OC)C[C@@H](C)C(=O)[C@H](C)[C@H]2N(CC#CCn3cc(-c4cc(OC)ccn4)nn3)C(=O)O[C@]12C", "note": "(some centres unmarked) [FSM-100576]", "values": [{"measurement": "MIC", "setting": "[1]; [10]", "value": 0.125, "unit": "µg/mL"}, {"measurement": "MIC", "setting": "[2]; Escherichia coli, ATCC25922", "value": 2, "unit": "µg/mL"}, {"measurement": "MIC", "setting": "E. coli MP-541 clinical; [11]", "value": 32, "unit": "µg/mL"}, {"measurement": "MIC", "setting": "[3]; [10]", "value": "> 32", "unit": "µg/mL"}, {"measurement": "MIC", "setting": "[4]; Escherichia coli", "value": "> 32", "unit": "µg/mL"}, {"measurement": "MIC", "setting": "E. coli ATCC 25922; [12]", "value": 32, "unit": "µg/mL"}, {"measurement": "MIC", "setting": "S. aureus ATCC 29213; [13]", "value": 0.125, "unit": "µg/mL"}, {"measurement": "MIC", "setting": "S. aureus MRSA: USA300; [10]", "value": 0.25, "unit": "µg/mL"}, {"measurement": "MIC", "setting": "[5]; [14]", "value": "> 32", "unit": "µg/mL"}, {"measurement": "MIC", "setting": "P. aeruginosa MP-7 PAO1; [15]", "value": "> 32", "unit": "µg/mL"}, {"measurement": "MIC", "setting": "[6]; [16]", "value": "> 32", "unit": "µg/mL"}, {"measurement": "MIC", "setting": "[7]; [14]", "value": "> 32", "unit": "µg/mL"}, {"measurement": "MIC", "setting": "[8]; Pseudomonas aeruginosa, PAO1", "value": 8, "unit": "µg/mL"}, {"measurement": "MIC", "setting": "P. aeruginosa ATCC 27853; [17]", "value": "> 32", "unit": "µg/mL"}, {"measurement": "MIC", "setting": "[9]; [18]", "value": "> 32", "unit": "µg/mL"}, {"measurement": "MIC", "setting": "K. pneumoniae ATCC 10031; [19]", "value": 4, "unit": "µg/mL"}, {"measurement": "MIC", "setting": "A. baumannii ATCC 19606; [20]", "value": 16, "unit": "µg/mL"}]}, {"molecule": "CC[C@H]1OC(=O)[C@@](C)(F)C(=O)[C@H](C)[C@@H](O[C@@H]2OC(C)CC(N(C)C)C2O)[C@](C)(OC)C[C@@H](C)C(=O)[C@H](C)[C@H]2N(CC#CCn3cc(-c4ncccn4)nn3)C(=O)O[C@]12C", "note": "(some centres unmarked) [FSM-22741]", "values": [{"measurement": "MIC", "setting": "[1]; [10]", "value": 0.125, "unit": "µg/mL"}, {"measurement": "MIC", "setting": "[2]; Escherichia coli, ATCC25922", "value": 4, "unit": "µg/mL"}, {"measurement": "MIC", "setting": "E. coli MP-541 clinical; [11]", "value": 32, "unit": "µg/mL"}, {"measurement": "MIC", "setting": "[3]; [10]", "value": "> 64", "unit": "µg/mL"}, {"measurement": "MIC", "setting": "[4]; Escherichia coli", "value": "> 64", "unit": "µg/mL"}, {"measurement": "MIC", "setting": "E. coli ATCC 25922; [12]", "value": 16, "unit": "µg/mL"}, {"measurement": "MIC", "setting": "S. aureus ATCC 29213; [13]", "value": 0.125, "unit": "µg/mL"}, {"measurement": "MIC", "setting": "S. aureus MRSA: USA300; [10]", "value": 0.25, "unit": "µg/mL"}, {"measurement": "MIC", "setting": "[5]; [14]", "value": "> 64", "unit": "µg/mL"}, {"measurement": "MIC", "setting": "P. aeruginosa MP-7 PAO1; [15]", "value": "> 64", "unit": "µg/mL"}, {"measurement": "MIC", "setting": "[6]; [16]", "value": "> 64", "unit": "µg/mL"}, {"measurement": "MIC", "setting": "[7]; [14]", "value": 32, "unit": "µg/mL"}, {"measurement": "MIC", "setting": "[8]; Pseudomonas aeruginosa, PAO1", "value": 8, "unit": "µg/mL"}, {"measurement": "MIC", "setting": "P. aeruginosa ATCC 27853; [17]", "value": "> 64", "unit": "µg/mL"}, {"measurement": "MIC", "setting": "[9]; [18]", "value": 64, "unit": "µg/mL"}, {"measurement": "MIC", "setting": "K. pneumoniae ATCC 10031; [19]", "value": 4, "unit": "µg/mL"}, {"measurement": "MIC", "setting": "A. baumannii ATCC 19606; [20]", "value": 8, "unit": "µg/mL"}]}, {"molecule": "CCC1OC(=O)C(C)(F)C(=O)C(C)C(OC2OC(C)CC(N(C)C)C2O)C(C)(OC)CC(C)C(=O)C(C)C2N(CC=C=Cn3cc(-c4nccc(N)n4)nn3)C(=O)OC12C", "note": "(centres unmarked) [FSM-22738]", "values": [{"measurement": "MIC", "setting": "[1]", "value": 0.25, "unit": "µg/mL"}, {"measurement": "MIC", "setting": "[2]; E. coli MP-9, ATCC25922:tolC", "value": 1, "unit": "µg/mL"}, {"measurement": "MIC", "setting": "E. coli MP-541 clinical", "value": 16, "unit": "µg/mL"}, {"measurement": "MIC", "setting": "[3]", "value": 32, "unit": "µg/mL"}, {"measurement": "MIC", "setting": "[4]; E. coli MP-532, clinical-cErmB", "value": ">64", "unit": "µg/mL"}, {"measurement": "MIC", "setting": "E. coli ATCC 25922; E. coli ATCC 25922 (MP-4)", "value": 8, "unit": "µg/mL"}, {"measurement": "MIC", "setting": "S. aureus ATCC 29213", "value": 0.25, "unit": "µg/mL"}, {"measurement": "MIC", "setting": "S. aureus MRSA: USA300", "value": 0.25, "unit": "µg/mL"}, {"measurement": "MIC", "setting": "[5]", "value": ">64", "unit": "µg/mL"}, {"measurement": "MIC", "setting": "P. aeruginosa MP-7 PAO1", "value": 64, "unit": "µg/mL"}, {"measurement": "MIC", "setting": "[6]", "value": ">64", "unit": "µg/mL"}, {"measurement": "MIC", "setting": "[7]", "value": 32, "unit": "µg/mL"}, {"measurement": "MIC", "setting": "[8]; P. aeruginosa MP-8, PAO1:mex, mex-oprM-deletion", "value": 8, "unit": "µg/mL"}, {"measurement": "MIC", "setting": "P. aeruginosa ATCC 27853", "value": 64, "unit": "µg/mL"}, {"measurement": "MIC", "setting": "[9]", "value": 64, "unit": "µg/mL"}, {"measurement": "MIC", "setting": "K. pneumoniae ATCC 10031; K. pneumoniae ATCC 10031 (MP-14)", "value": 4, "unit": "µg/mL"}, {"measurement": "MIC", "setting": "A. baumannii ATCC 19606", "value": 8, "unit": "µg/mL"}]}, {"molecule": "CC[C@H]1OC(=O)[C@@](C)(F)C(=O)[C@H](C)[C@@H](O[C@@H]2OC(C)CC(N(C)C)C2O)[C@](C)(OC)C[C@@H](C)C(=O)[C@H](C)[C@H]2N(CC#CCn3cc(-c4cccc(F)n4)nn3)C(=O)O[C@]12C", "note": "(some centres unmarked) [FSM-100627]", "values": [{"measurement": "MIC", "setting": "[1]; [10]", "value": 0.06, "unit": "µg/mL"}, {"measurement": "MIC", "setting": "[2]; Escherichia coli, ATCC25922", "value": 1, "unit": "µg/mL"}, {"measurement": "MIC", "setting": "E. coli MP-541 clinical; [11]", "value": 8, "unit": "µg/mL"}, {"measurement": "MIC", "setting": "[3]; [10]", "value": 32, "unit": "µg/mL"}, {"measurement": "MIC", "setting": "[4]; Escherichia coli", "value": "> 64", "unit": "µg/mL"}, {"measurement": "MIC", "setting": "E. coli ATCC 25922; [12]", "value": 16, "unit": "µg/mL"}, {"measurement": "MIC", "setting": "S. aureus ATCC 29213; [13]", "value": 0.06, "unit": "µg/mL"}, {"measurement": "MIC", "setting": "S. aureus MRSA: USA300; [10]", "value": 0.125, "unit": "µg/mL"}, {"measurement": "MIC", "setting": "[5]; [14]", "value": "> 64", "unit": "µg/mL"}, {"measurement": "MIC", "setting": "P. aeruginosa MP-7 PAO1; [15]", "value": 64, "unit": "µg/mL"}, {"measurement": "MIC", "setting": "[6]; [16]", "value": 64, "unit": "µg/mL"}, {"measurement": "MIC", "setting": "[7]; [14]", "value": 32, "unit": "µg/mL"}, {"measurement": "MIC", "setting": "[8]; Pseudomonas aeruginosa, PAO1", "value": 4, "unit": "µg/mL"}, {"measurement": "MIC", "setting": "P. aeruginosa ATCC 27853; [17]", "value": 64, "unit": "µg/mL"}, {"measurement": "MIC", "setting": "[9]; [18]", "value": 32, "unit": "µg/mL"}, {"measurement": "MIC", "setting": "K. pneumoniae ATCC 10031; [19]", "value": 2, "unit": "µg/mL"}, {"measurement": "MIC", "setting": "A. baumannii ATCC 19606; [20]", "value": 8, "unit": "µg/mL"}]}]}
